{
  "source": "patent US9279806B2",
  "about": "“Water-soluble AIE luminogens for monitoring and retardation of fibrillation of amyloid proteins” (THE HONG KONG UNIVERSITY OF SCIENCE AND TECHNOLOGY, priority 2005, dated 2016)",
  "key": {"[1]": {"molecular_target": "Bovine serum albumin (BSA) (Bos taurus, UniProt P02769)", "sequence (P02769 25-607)": "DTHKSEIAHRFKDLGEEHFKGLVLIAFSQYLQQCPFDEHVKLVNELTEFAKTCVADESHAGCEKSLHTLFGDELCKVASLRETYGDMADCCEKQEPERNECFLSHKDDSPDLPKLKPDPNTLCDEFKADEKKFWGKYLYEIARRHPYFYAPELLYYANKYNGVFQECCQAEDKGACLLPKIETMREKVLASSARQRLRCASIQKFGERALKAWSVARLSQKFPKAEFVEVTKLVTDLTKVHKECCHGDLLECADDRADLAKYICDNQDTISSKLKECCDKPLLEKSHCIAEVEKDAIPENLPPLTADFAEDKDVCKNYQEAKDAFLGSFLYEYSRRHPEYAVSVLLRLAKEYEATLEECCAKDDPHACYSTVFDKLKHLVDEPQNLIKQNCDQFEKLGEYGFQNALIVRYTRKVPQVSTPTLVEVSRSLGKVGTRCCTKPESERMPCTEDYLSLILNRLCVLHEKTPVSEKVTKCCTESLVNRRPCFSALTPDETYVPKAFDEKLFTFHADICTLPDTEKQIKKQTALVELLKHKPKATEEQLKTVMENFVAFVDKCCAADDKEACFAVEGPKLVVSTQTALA", "assay": "Fluorimetric titration of BSA to polyenes", "assay_type": "binding", "experimental": "Fluorimetric titration of biomacromolecules to polyenes Bovine serum albumin (BSA) and calf thymus DNA (ctDNA) were selected as model proteins and DNA. BSA was dissolved in a pH 7.0 phosphate buffer solution (1.0 mg/ml). DNA was dissolved in deionized water (1.0 mg/ml) and filtered through a 0.45 μm filter. The actual concentration (in nucleic base) was determined by UV photometry using the extinction coefficient ε260=6600 M^−1 cm^−1.\nStock solutions of polyenes were 5×10^−4 M in water. Fluorescence titration was carried out by sequentially adding 100 μl aliquots of DNA or BSA solutions to a 100 μl stock solution of polyenes, followed by adding an aqueous phosphate buffer (10 mM, pH 7) to acquire a 10.00 ml solution. The mixtures were stirred for half an hour prior to taking their spectra.\nComplexation of the water-soluble AIE TPEs 3 and 4 with calf thymus DNA (ctDNA) and bovine serum albumin (BSA) were investigated by spectrometric titrations in aqueous phosphate buffer (pH=7.0) at 25 C. Stock solutions of TPEs 3 and 4 (0.25 mM) were prepared."}, "[2]": {"assay": "Photophysical properties in solution and aggregate states (AIE effect)", "assay_type": "physicochemical", "details": "for Emission maximum wavelength (λem): excitation 350 nm"}, "[3]": {"tested_on": "lysozyme", "assay": "FL during lysozyme fibril formation", "details": "10, 50 and 100 μM, over 4 days"}, "[4]": {"tested_on": "heparin, apoferritin, cellulose, papain, native and fibrillar insulin", "assay": "FL specificity against other protein monomers", "details": "protein 1.0 mg/mL"}, "[5]": {"molecular_target": "amyloid-β-peptide (Homo sapiens, UniProt P05067)", "sequence (P05067 672-711 limits assumed)": "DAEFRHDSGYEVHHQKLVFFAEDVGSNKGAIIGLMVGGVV", "assay": "FL with amyloid-β-peptide before and after aging", "details": "0.1 mg/mL amyloid-β-peptide, λex 350 nm"}, "[6]": {"details": "aggregate: 99% water/AN for TPE-OMe and TPE-OH, 99% AN/water for TPE-SO3"}, "[7]": {"details": "solution: acetonitrile for TPE-OMe and TPE-OH (10 μM), water for TPE-SO3 (5 μM)"}},
  "data": [
    {"substance": "1,2-Diphenyl-1,2-bis(4,4′-(3-sulfonato)propoxyl)phenylethylene [TPE-SO3]", "values": [
      {"measurement": "ΦE (quantum yield), bind", "setting": "[1]; BSA solution of TPE-OH•Na2 or TPE-SO3 in aqueous phosphate buffer pH 7.0", "value": 58.2, "unit": "%"},
      {"measurement": "λex (emission maximum), bind", "setting": "[1]; BSA solution of TPE-OH•Na2 or TPE-SO3 in aqueous phosphate buffer pH 7.0, excitation 350 nm", "value": 472, "unit": "nm"},
      {"measurement": "FL intensity increase upon binding with BSA", "setting": "[1]; aqueous phosphate buffer, 472 nm", "value": "up to 240 times"},
      {"measurement": "ΦE (quantum yield), aggr", "setting": "[2]; [6]", "value": 17.47, "unit": "%"},
      {"measurement": "λab (absorption maximum), aggr", "setting": "[2]; [6]", "value": 320, "unit": "nm"},
      {"measurement": "Emission maximum wavelength (λem)", "setting": "[2]; [6]", "value": 442, "unit": "nm"},
      {"measurement": "ΦE (quantum yield), soln", "setting": "[2]; [7]", "value": 0.37, "unit": "%"},
      {"measurement": "λab (absorption maximum), soln", "setting": "[2]; [7]", "value": 312, "unit": "nm"},
      {"measurement": "Emission maximum wavelength (λem)", "setting": "[2]; [7]", "value": 398, "unit": "nm"},
      {"measurement": "Fluorescence profile during lysozyme fibril formation", "setting": "[3]", "value": "produces fluorescence profile corresponding to lysozyme fibrillation"},
      {"measurement": "FL with fibrillar insulin", "setting": "[4]", "value": "significantly higher than other cellular proteins tested"},
      {"measurement": "FL with heparin, apoferritin and cellulose", "setting": "[4]", "value": "comparable to TPE-SO3 solution alone"},
      {"measurement": "FL with papain", "setting": "[4]", "value": "comparable to native insulin monomer"},
      {"measurement": "Emission on formation of amyloid-β-peptide fibrils (after aging)", "setting": "[5]", "value": "increases dramatically"}
    ]}
  ]
}
